# In patent US20240156785A1, “COMPOSITION FOR IMPROVING BLOOD CHOLESTEROL LEVEL” (SUNTORY HOLDINGS LIMITED, priority 2021, published 2024):
# Assays:
# [1] = system: triglyceride (neutral fat) level in plasma; details: mice, oral administration, compared with mice not orally administered with ergothioneine; cited from earlier work
# [2] = system: HDL cholesterol and LDL cholesterol in the blood; experiment: Blood cholesterol evaluation study on human (placebo-controlled, randomized, double-blind, parallel-group); assay type: in vivo; details: human adults, one capsule (20 mg L-ergothioneine) per day orally for four weeks, week 4 vs pre-testing, compared with control food group
# Method: In order to evaluate the influence of supplements containing ergothioneine on human blood cholesterol levels, a placebo-controlled, randomized, double-blind, parallel-group study was conducted on subjects including male and female adults (46 subjects in a test food group; 46 subjects in a control food group; 92 subjects in total). In this study, one capsule containing 20 mg ergothioneine (test food) or one capsule not containing ergothioneine (control food) was fed per day for four weeks. The blood cholesterol levels of the subjects were measured for pre-testing before starting the study (before starting ingestion of the test food or control food). After ingestion of the test food or control food for four weeks, the blood cholesterol levels of the subjects were measured again (testing on week 4). The cholesterol measured includes HDL cholesterol and LDL cholesterol. […] The ratio of LDL cholesterol level to HDL cholesterol level (LDL/HDL ratio) in the blood was determined for each subject from the measurements (mg/dL) of HDL cholesterol and LDL cholesterol. […] For each group, the amount of changes in LDL/HDL ratio (Δ in LDL/HDL ratio) from the time of pre-testing was determined by subtracting the LDL/HDL ratio at the time of pre-testing from the LDL/HDL ratio at the time of testing on week 4 ((LDL/HDL ratio at the time of testing on week 4)—(LDL/HDL ratio at the time of pre-testing)). […]
smiles,measurement,setting,value
C[N+](C)(C)[C@@H](Cc1c[nH]c(=S)[nH]1)C(=O)[O-] [L-ergothioneine],triglyceride (neutral fat) level in plasma,[1],lower
same,changes in HDL cholesterol level (Δ in HDL cholesterol) in the blood,[2],increased
same,changes in LDL/HDL ratio (Δ in LDL/HDL ratio) in the blood,[2],reduced
